This is an account of results in paper PMC10377601, “Side Chain-Modified Benzothiazinone Derivatives with Anti-Mycobacterial Activity” (Biomedicines, 2023).

Data set [1] has as its system Mycobacterium tuberculosis. Also on record: method as in PMID 24500695. Particulars: whole-cell activity; cited from earlier work.
The target in data set [2] is T1, recombinant M. tuberculosis DprE1 enzyme (Mycobacterium tuberculosis, UniProt P9WJF1).
T1 construct: made in house; host or cells: E. coli
Kind of data set: DprE1 inhibition, Amplex Red/peroxidase coupled assay. It counts as biochemical. The conditions noted are these: Mtb DprE1.

The test system of the next data set is M. tuberculosis H37Rv. Kind of data set: MIC determination by microplate alamar blue assay (MABA). The conditions noted are these: Mycobacterium tuberculosis. It is filed as cell-based.
A further data set in a line: in vitro. It is filed as in vitro ADME. The conditions noted are these: human, microsomes, pH 7.4. Further details: dose or concentration left out as unconfirmed. As to the method:
The compounds’ metabolic stability were determined in human liver microsomes. A solution of microsomes (0.2 mg/mL) containing the compounds […], NADPH (1 mM), and phosphate buffer (100 mM, pH 7.4) were prepared. Pre-incubation was conducted at 37 °C for 10 min. There was addition of 50 µL and 5 mM NADPH to initiate the reaction. At 5, 15, 30, 60, or 120 min, 30 µL of reaction solution was taken out and quenched with 300 µL internal standard tolbutamide (10 ng/mL) in cold CH3CN. The mixture was centrifuged at 6000 rpm for 15 min at 4 °C. Then, 100 μL supernatant was diluted with 100 uL ultrapure water (Millipore, ZMQS50F01). The solution was analyzed via LC/MS analysis.

T1 sequence (P9WJF1 whole entry): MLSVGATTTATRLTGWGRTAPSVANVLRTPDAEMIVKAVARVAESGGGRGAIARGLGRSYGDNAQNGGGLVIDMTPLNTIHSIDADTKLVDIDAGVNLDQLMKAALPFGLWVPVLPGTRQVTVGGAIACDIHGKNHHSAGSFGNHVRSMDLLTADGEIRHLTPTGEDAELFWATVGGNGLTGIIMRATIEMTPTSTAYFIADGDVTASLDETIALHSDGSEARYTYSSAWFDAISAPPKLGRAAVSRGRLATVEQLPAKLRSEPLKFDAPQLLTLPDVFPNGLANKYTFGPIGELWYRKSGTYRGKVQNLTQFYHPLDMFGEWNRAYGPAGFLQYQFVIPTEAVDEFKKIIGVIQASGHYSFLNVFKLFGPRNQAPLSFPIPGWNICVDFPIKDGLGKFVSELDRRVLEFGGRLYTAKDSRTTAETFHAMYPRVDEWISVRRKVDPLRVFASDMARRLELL

In the case of `C[C@H]1COC2(CCN(c3nc(=O)c4cc(C(F)(F)F)cc([N+](=O)[O-])c4s3)CC2)O1` [BTZ043], in data set [1], the “minimal inhibitory concentration (MIC)” value was “lower than 0.004 µM”.

As to `CN(Cc1cn(-c2c(F)cccc2F)nn1)c1nc(=O)c2cc(C(F)(F)F)cc([N+](=O)[O-])c2s1` [Compound 24], the IC50 in data set [2] is 7200 nM. The compound also displayed an MIC against M. tuberculosis H37Rv (Mtb H37Rv, MABA) of 0.259 µM.

Turning to `CN(Cc1cn(-c2ccc(Cl)c(Cl)c2)nn1)c1nc(=O)c2cc(C(F)(F)F)cc([N+](=O)[O-])c2s1` [Compound 26], the IC50 in data set [2] worked out at 20 nM. Moreover, the MIC with M. tuberculosis H37Rv (H37Rv, Table S1) was determined as 4 ng/mL; against M. tuberculosis H37Rv (Mtb H37Rv, MABA) it was 0.036 µM.

For the compound `CN(Cc1cn(-c2ccc(F)c(Br)c2)nn1)c1nc(=O)c2cc(C(F)(F)F)cc([N+](=O)[O-])c2s1` [Compound 27], the IC50 in data set [2] stood at 7200 nM. The minimal inhibitory concentration (MIC) worked out at 129 ng/mL against M. tuberculosis H37Rv (H37Rv, Table S1) and 0.055 µM against M. tuberculosis H37Rv (Mtb H37Rv, MABA).

For `CN(Cc1cn(-c2ccc(F)c(Cl)c2)nn1)c1nc(=O)c2cc(C(F)(F)F)cc([N+](=O)[O-])c2s1` [Compound 28], the IC50 in data set [2] worked out at 41 nM. Also, the MIC in the data set on M. tuberculosis H37Rv (H37Rv, Table S1) worked out at 8 ng/mL; in the data set on M. tuberculosis H37Rv (Mtb H37Rv, MABA) it was 0.029 µM.

For the compound `CN(Cc1cn(-c2ccc(Cl)cc2Cl)nn1)c1nc(=O)c2cc(C(F)(F)F)cc([N+](=O)[O-])c2s1` [Compound 29], the IC50 in data set [2] was 24 nM. In addition, the MIC is 4 ng/mL against M. tuberculosis H37Rv (H37Rv, Table S1) and 0.023 µM against M. tuberculosis H37Rv (Mtb H37Rv, MABA).

For the compound `CN(Cc1cn(-c2cc(Cl)cc(Cl)c2)nn1)c1nc(=O)c2cc(C(F)(F)F)cc([N+](=O)[O-])c2s1` [Compound 30], the IC50 in data set [2] came to 90 nM. For the same compound, the MIC with M. tuberculosis H37Rv (H37Rv, Table S1) is 6 ng/mL; in the data set on M. tuberculosis H37Rv (Mtb H37Rv, MABA) it was 0.047 µM.

Regarding `CN(Cc1coc(-c2ccccc2)n1)c1nc(=O)c2cc(C(F)(F)F)cc([N+](=O)[O-])c2s1` [Compound 31, 2-{methyl[(2-phenyloxazol-4-yl)methyl]amino}-BTZ], in “in vitro”, the CLint scaled is 51.7 mL/min/kg. This compound showed a half-life in the data set “in vitro” of 33.6 min. The IC50 in data set [2] stood at 220 nM. The MIC was 13 ng/mL in the data set on M. tuberculosis H37Rv (H37Rv, Table S1) and 0.006 µM in the data set with M. tuberculosis H37Rv (Mtb H37Rv, MABA).

Consider `CN(Cc1coc(-c2ccc(F)cc2)n1)c1nc(=O)c2cc(C(F)(F)F)cc([N+](=O)[O-])c2s1` [Compound 32], for which, in data set [2], the IC50 was 750 nM. Besides, the MIC against M. tuberculosis H37Rv (H37Rv, Table S1) was 16 ng/mL; in the data set on M. tuberculosis H37Rv (Mtb H37Rv, MABA), 0.006 µM.

Regarding `CN(Cc1coc(-c2cccc(F)c2)n1)c1nc(=O)c2cc(C(F)(F)F)cc([N+](=O)[O-])c2s1` [Compound 33], in data set [2], the IC50 was determined as 74 nM. The MIC with M. tuberculosis H37Rv (H37Rv, Table S1) was 3 ng/mL; with M. tuberculosis H37Rv (Mtb H37Rv, MABA) it was 0.021 µM.

Turning to `CN(Cc1csc(-c2ccccc2)n1)c1nc(=O)c2cc(C(F)(F)F)cc([N+](=O)[O-])c2s1` [Compound 34, 2-{methyl[(2-phenylthiazol-4-yl)methyl]amino}-BTZ], the CLint scaled in “in vitro” is 71.6 mL/min/kg. The compound further returned a half-life in “in vitro” of 24.3 min. Also, in data set [2], the IC50 amounted to 69 nM. Besides, the MIC came out at 0.015 µM in the data set on M. tuberculosis H37Rv (168 h, Mtb H37Rv, MABA); 3 ng/mL in the data set on M. tuberculosis H37Rv (H37Rv, Table S1); 0.015 µM with M. tuberculosis H37Rv (Mtb H37Rv, MABA).

`CN(Cc1csc(-c2cccc(F)c2)n1)c1nc(=O)c2cc(C(F)(F)F)cc([N+](=O)[O-])c2s1` [Compound 35]: the IC50 in data set [2] is 65 nM. Also, the MIC came to 0.032 µM in the data set on M. tuberculosis H37Rv (168 h, Mtb H37Rv, MABA); 7 ng/mL with M. tuberculosis H37Rv (H37Rv, Table S1); 0.032 µM with M. tuberculosis H37Rv (Mtb H37Rv, MABA).

In “in vitro”, `CN(Cc1csc(-c2ccc(F)cc2)n1)c1nc(=O)c2cc(C(F)(F)F)cc([N+](=O)[O-])c2s1` [Compound 36, 2-{[(2-(4-fluorophenyl)thiazol-4-yl)methyl](methyl)amino}-BTZ] had a CLint scaled of 25.5 mL/min/kg and a half-life of 68.2 min. For the same compound, in the data set on M. tuberculosis H37Rv (168 h, Mtb H37Rv, MABA), the lowest concentration to inhibit growth (MIC) was 0.034 µM. The compound further gave an MIC against M. tuberculosis H37Rv (Mtb H37Rv, MABA) of 0.034 µM.

Turning to `CN(Cc1nnc(-c2ccc(F)cc2)o1)c1nc(=O)c2cc(C(F)(F)F)cc([N+](=O)[O-])c2s1` [Compound 39], it took 0.006 µM to inhibit growth in the data set on M. tuberculosis H37Rv (Mtb H37Rv, MABA) (MIC).

In “in vitro”, `CN(Cc1nnc(-c2ccccc2)s1)c1nc(=O)c2cc(C(F)(F)F)cc([N+](=O)[O-])c2s1` [Compound 40, 2-{methyl[(5-phenyl-1,3,4-thiadiazol-2-yl)methyl]amino}-BTZ] yielded a CLint scaled of 50.7 mL/min/kg and a half-life of 34.3 min. Further, the MIC in the data set with M. tuberculosis H37Rv (Mtb H37Rv, MABA) turned out to be 0.033 µM.

For `CN(Cc1nnc(-c2cccc(F)c2)s1)c1nc(=O)c2cc(C(F)(F)F)cc([N+](=O)[O-])c2s1` [Compound 41], inhibition of growth in the data set on M. tuberculosis H37Rv (Mtb H37Rv, MABA) (MIC) required 0.024 µM.

Compound `CN(Cc1nnc(-c2ccc(F)cc2)s1)c1nc(=O)c2cc(C(F)(F)F)cc([N+](=O)[O-])c2s1` [Compound 42] came in with an MIC in the data set with M. tuberculosis H37Rv (Mtb H37Rv, MABA) of 0.026 µM.
